Source: PubChem BioAssay AID2060485 (Molecular Pharmacology Branch, DTP, NCI, 2025)

System: A375 multi-cell spheroids with HUVEC/MSC, viability
Test: Anticancer human tumor A375 cell line growth inhibition [GQUAD];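 note: spheroids exposed to compounds for seven days before readout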
Conditions: for IC50: curve of first compound; for viability, T/C: stronger effect = lower value
How it was run: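 Tumor cells were grown as complex spheroids with HUVEC endothelial cells and mesenchymal stem cells as stroma. G-quadruplex stabilizers were combined with targeted agents over half-log dilutions from near the clinical Cmax, or from 10 microM.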

[1] = second compound 0.0316 µM, first compound 0.000999 µM
[2] = second compound 0.0316 µM, first compound 0.00316 µM
[3] = second compound 0.0316 µM, first compound 0.00999 µM
[4] = second compound 0.0316 µM, first compound 0.0316 µM
[5] = second compound 0.0316 µM, first compound 0.0999 µM
[6] = second compound 0.0316 µM, first compound 0.316 µM
[7] = second compound 0.1 µM, first compound 0.000999 µM
[8] = second compound 0.1 µM, first compound 0.00316 µM
[9] = second compound 0.1 µM, first compound 0.00999 µM
[10] = second compound 0.1 µM, first compound 0.0316 µM
[11] = second compound 0.1 µM, first compound 0.0999 µM
[12] = second compound 0.1 µM, first compound 0.316 µM
[13] = second compound 0.316 µM, first compound 0.000999 µM
[14] = second compound 0.316 µM, first compound 0.00316 µM
[15] = second compound 0.316 µM, first compound 0.00999 µM
[16] = second compound 0.316 µM, first compound 0.0316 µM
[17] = second compound 0.316 µM, first compound 0.0999 µM
[18] = second compound 0.316 µM, first compound 0.316 µM
[19] = second compound 1 µM, first compound 0.000999 µM
[20] = second compound 1 µM, first compound 0.00316 µM
[21] = second compound 1 µM, first compound 0.00999 µM
[22] = second compound 1 µM, first compound 0.0316 µM
[23] = second compound 1 µM, first compound 0.0999 µM
[24] = second compound 1 µM, first compound 0.316 µM
[25] = second compound 3.16 µM, first compound 0.000999 µM
[26] = second compound 3.16 µM, first compound 0.00316 µM
[27] = second compound 3.16 µM, first compound 0.00999 µM
[28] = second compound 3.16 µM, first compound 0.0316 µM
[29] = second compound 3.16 µM, first compound 0.0999 µM
[30] = second compound 3.16 µM, first compound 0.316 µM
[31] = second compound 10 µM, first compound 0.000999 µM
[32] = second compound 10 µM, first compound 0.00316 µM
[33] = second compound 10 µM, first compound 0.00999 µM
[34] = second compound 10 µM, first compound 0.0316 µM
[35] = second compound 10 µM, first compound 0.0999 µM
[36] = second compound 10 µM, first compound 0.316 µM
[37] = second compound 0.0316 µM, first compound 0.1 µM
[38] = second compound 0.0316 µM, first compound 1 µM
[39] = second compound 0.0316 µM, first compound 3.16 µM
[40] = second compound 0.0316 µM, first compound 10 µM
[41] = second compound 0.1 µM, first compound 0.1 µM
[42] = second compound 0.1 µM, first compound 1 µM
[43] = second compound 0.1 µM, first compound 3.16 µM
[44] = second compound 0.1 µM, first compound 10 µM
[45] = second compound 0.316 µM, first compound 0.1 µM
[46] = second compound 0.316 µM, first compound 1 µM
[47] = second compound 0.316 µM, first compound 3.16 µM
[48] = second compound 0.316 µM, first compound 10 µM
[49] = second compound 1 µM, first compound 0.1 µM
[50] = second compound 1 µM, first compound 1 µM
[51] = second compound 1 µM, first compound 3.16 µM
[52] = second compound 1 µM, first compound 10 µM
[53] = second compound 3.16 µM, first compound 0.1 µM
[54] = second compound 3.16 µM, first compound 1 µM
[55] = second compound 3.16 µM, first compound 3.16 µM
[56] = second compound 3.16 µM, first compound 10 µM
[57] = second compound 10 µM, first compound 0.1 µM
[58] = second compound 10 µM, first compound 1 µM
[59] = second compound 10 µM, first compound 3.16 µM
[60] = second compound 10 µM, first compound 10 µM

CCc1c2c(nc3ccc(O)cc13)-c1cc3c(c(=O)n1C2)COC(=O)[C@]3(O)CC + Cc1[nH]c2ccc(F)cc2c1-c1nc2c3cccnc3c3ncccc3c2[nH]1
IC50 (second compound 0.0316 µM): < 0.000999 µM
IC50 (second compound 0.1 µM): < 0.000999 µM
IC50 (second compound 0.316 µM): < 0.000999 µM
IC50 (second compound 1 µM): < 0.000999 µM
IC50 (second compound 3.16 µM): < 0.000999 µM
IC50 (second compound 10 µM): < 0.000999 µM
viability, T/C [1]: 46%
viability, T/C [2]: 20%
viability, T/C [3]: 16.8%
viability, T/C [4]: 19.7%
viability, T/C [5]: 4.81%
viability, T/C [6]: 0.52%
viability, T/C [7]: 50.3%
viability, T/C [8]: 20.4%
viability, T/C [9]: 14.7%
viability, T/C [10]: 16.9%
viability, T/C [11]: 5.44%
viability, T/C [12]: 0.54%
viability, T/C [13]: 47.8%
viability, T/C [14]: 18.3%
viability, T/C [15]: 15.2%
viability, T/C [16]: 19.5%
viability, T/C [17]: 5.75%
viability, T/C [18]: 0.54%
viability, T/C [19]: 41.1%
viability, T/C [20]: 20.4%
viability, T/C [21]: 18.4%
viability, T/C [22]: 16.4%
viability, T/C [23]: 5.26%
viability, T/C [24]: 0.53%
viability, T/C [25]: 32%
viability, T/C [26]: 20.9%
viability, T/C [27]: 17.6%
viability, T/C [28]: 11%
viability, T/C [29]: 0.47%
viability, T/C [30]: 0.17%
viability, T/C [31]: 39.4%
viability, T/C [32]: 17.6%
viability, T/C [33]: 17.1%
viability, T/C [34]: 14.1%
viability, T/C [35]: 1.7%
viability, T/C [36]: 0.25%

Cc1cccc(N(C)C(=O)C2C(O)CCN2c2nc(C)cc(C(F)(F)F)c2C#N)c1 (stereo not drawn) + Cc1[nH]c2ccc(F)cc2c1-c1nc2c3cccnc3c3ncccc3c2[nH]1
IC50 (second compound 0.0316 µM): > 10 µM
IC50 (second compound 0.1 µM): > 10 µM
IC50 (second compound 0.316 µM): > 10 µM
IC50 (second compound 1 µM): > 10 µM
IC50 (second compound 3.16 µM): > 10 µM
IC50 (second compound 10 µM): > 10 µM
viability, T/C [4]: 102%
viability, T/C [37]: 102%
viability, T/C [6]: 94.8%
viability, T/C [38]: 98.6%
viability, T/C [39]: 95.5%
viability, T/C [40]: 95.2%
viability, T/C [10]: 106%
viability, T/C [41]: 94.5%
viability, T/C [12]: 105%
viability, T/C [42]: 108%
viability, T/C [43]: 104%
viability, T/C [44]: 103%
viability, T/C [16]: 98.1%
viability, T/C [45]: 100%
viability, T/C [18]: 93.5%
viability, T/C [46]: 111%
viability, T/C [47]: 111%
viability, T/C [48]: 107%
viability, T/C [22]: 95.7%
viability, T/C [49]: 101%
viability, T/C [24]: 106%
viability, T/C [50]: 109%
viability, T/C [51]: 103%
viability, T/C [52]: 105%
viability, T/C [28]: 80%
viability, T/C [53]: 90.2%
viability, T/C [30]: 94.7%
viability, T/C [54]: 84.2%
viability, T/C [55]: 89.5%
viability, T/C [56]: 79.4%
viability, T/C [34]: 106%
viability, T/C [57]: 100%
viability, T/C [36]: 112%
viability, T/C [58]: 106%
viability, T/C [59]: 97.6%
viability, T/C [60]: 91.7%

Cn1ncnc1[C@H]1c2n[nH]c(=O)c3cc(F)cc(c23)N[C@@H]1c1ccc(F)cc1 + Cc1[nH]c2ccc(F)cc2c1-c1nc2c3cccnc3c3ncccc3c2[nH]1
IC50 (second compound 0.0316 µM): > 0.316 µM
IC50 (second compound 0.1 µM): > 0.316 µM
IC50 (second compound 0.316 µM): > 0.316 µM
IC50 (second compound 1 µM): > 0.316 µM
IC50 (second compound 3.16 µM): > 0.316 µM
IC50 (second compound 10 µM): > 0.316 µM
viability, T/C [1]: 106%
viability, T/C [2]: 98.1%
viability, T/C [3]: 108%
viability, T/C [4]: 106%
viability, T/C [5]: 104%
viability, T/C [6]: 97.4%
viability, T/C [7]: 96.3%
viability, T/C [8]: 97.5%
viability, T/C [9]: 102%
viability, T/C [10]: 103%
viability, T/C [11]: 125%
viability, T/C [12]: 114%
viability, T/C [13]: 108%
viability, T/C [14]: 105%
viability, T/C [15]: 106%
viability, T/C [16]: 112%
viability, T/C [17]: 131%
viability, T/C [18]: 121%
viability, T/C [19]: 100%
viability, T/C [20]: 98%
viability, T/C [21]: 115%
viability, T/C [22]: 137%
viability, T/C [23]: 138%
viability, T/C [24]: 116%
viability, T/C [25]: 83.7%
viability, T/C [26]: 93.6%
viability, T/C [27]: 92.3%
viability, T/C [28]: 78.3%
viability, T/C [29]: 80.7%
viability, T/C [30]: 72%
viability, T/C [31]: 106%
viability, T/C [32]: 95.7%
viability, T/C [33]: 112%
viability, T/C [34]: 101%
viability, T/C [35]: 96.8%
viability, T/C [36]: 90.9%

O=C(c1cc(Cc2n[nH]c(=O)c3ccccc23)ccc1F)N1CCN(C(=O)C2CC2)CC1 + Cc1[nH]c2ccc(F)cc2c1-c1nc2c3cccnc3c3ncccc3c2[nH]1
IC50 (second compound 0.0316 µM): > 10 µM
IC50 (second compound 0.1 µM): > 10 µM
IC50 (second compound 0.316 µM): > 10 µM
IC50 (second compound 1 µM): > 10 µM
IC50 (second compound 3.16 µM): > 10 µM
IC50 (second compound 10 µM): > 10 µM
viability, T/C [4]: 100%
viability, T/C [37]: 88.9%
viability, T/C [6]: 86.7%
viability, T/C [38]: 102%
viability, T/C [39]: 110%
viability, T/C [40]: 80.6%
viability, T/C [10]: 101%
viability, T/C [41]: 97.4%
viability, T/C [12]: 86.7%
viability, T/C [42]: 103%
viability, T/C [43]: 96.1%
viability, T/C [44]: 91.5%
viability, T/C [16]: 92.2%
viability, T/C [45]: 105%
viability, T/C [18]: 105%
viability, T/C [46]: 94.8%
viability, T/C [47]: 111%
viability, T/C [48]: 83%
viability, T/C [22]: 96.2%
viability, T/C [49]: 95.5%
viability, T/C [24]: 102%
viability, T/C [50]: 102%
viability, T/C [51]: 117%
viability, T/C [52]: 74.7%
viability, T/C [28]: 80.5%
viability, T/C [53]: 78.7%
viability, T/C [30]: 84.3%
viability, T/C [54]: 73.4%
viability, T/C [55]: 74.7%
viability, T/C [56]: 61.6%
viability, T/C [34]: 94.1%
viability, T/C [57]: 90.5%
viability, T/C [36]: 105%
viability, T/C [58]: 90.8%
viability, T/C [59]: 91.3%
viability, T/C [60]: 72.1%
